We go through 26 compounds from patent US9540323B2 (BRISTOL-MYERS SQUIBB COMPANY, priority 2012, dated 2017).

In test [1] the target is cloned human P2Y1 receptors (Homo sapiens (Human), UniProt P47900). Kind of test: Binding Assay B - Scintillation Proximity Assay (SPA) for P2Y1 binding, [33P] 2MeS-ADP. Particulars: SPA, 0.3 nM [33P] 2MeS-ADP, Cheng-Prusoff; read-out: P2Y1 Ki (nM) using binding assay B. The method, then: Binding Assay B—Scintillation Proximity Assay (SPA) for P2Y1 Binding
A SPA membrane binding assay was used to identify inhibitors of [^33P] […] Reactions were allowed to proceed to completion at room temperature for 1 hour followed by centrifugation of the plate for 5 min. About 40 μL of the aqueous solution was aspirated. Plates were sealed and the [^33P]

Test [2] concerns human platelet rich plasma (PRP). Kind of test: ADP induced platelet aggregation assay. Particulars: Homo sapiens, Platelet, 5 min, read-out: PA IC50 (μM) @ 10 μM ADP, human PRP, 10 μM ADP, AUC at 5 minute.

cloned human P2Y1 receptors, sequence (P47900 whole entry): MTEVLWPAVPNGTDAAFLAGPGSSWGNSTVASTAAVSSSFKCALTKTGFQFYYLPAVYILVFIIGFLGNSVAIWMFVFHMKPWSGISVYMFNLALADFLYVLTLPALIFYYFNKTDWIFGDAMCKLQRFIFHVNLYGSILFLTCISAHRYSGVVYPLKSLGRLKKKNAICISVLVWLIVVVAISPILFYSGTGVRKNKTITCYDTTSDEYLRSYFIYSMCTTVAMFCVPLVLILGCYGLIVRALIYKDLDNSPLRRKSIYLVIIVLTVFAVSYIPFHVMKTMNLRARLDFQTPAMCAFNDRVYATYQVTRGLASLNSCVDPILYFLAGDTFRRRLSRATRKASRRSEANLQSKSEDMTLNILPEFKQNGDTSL

With `CC(C)n1nc(C(F)(F)F)cc1-c1c(F)cc(O)c2c1C(C)(C)CN2c1ccccc1NC(=O)Nc1nc2ccc(F)cc2s1` [Example 267, 1-(2-(5-Fluoro-7-hydroxy-4-(1-isopropyl-3-(trifluoromethyl)-1H-pyrazol-5-yl)-3,3-dimethylindolin-1-yl)phenyl)-3-(6-fluorobenzo[d]thiazol-2-yl)urea], in test [1], the inhibitory constant (Ki) stood at 16.4 nM. Also, in test [2], the concentration for half-maximal inhibition (IC50) came out at 0.51 µM.

Consider `CCC1(CC)CN(c2ccccc2NC(=O)Nc2ccc(C3CCN(CC(C)(C)C)CC3)cc2)c2c(O)ccc(C#N)c21` [Example 45, 1-(2-(4-Cyano-3,3-diethyl-7-hydroxyindolin-1-yl)phenyl)-3-(4-(1-neopentylpiperidin-4-yl)phenyl)urea], for which, in test [1], the Ki worked out at 6.7 nM. Also, the concentration for half-maximal inhibition (IC50) in test [2] was found to be 0.39 µM.

Regarding `CC1(C)CN(c2ccccc2NC(=O)Nc2csc(C(F)(F)F)n2)c2c(O)ccc(-c3ccc(F)cc3)c21` [Example 208, 1-(2-(4-(4-Fluorophenyl)-7-hydroxy-3,3-dimethylindolin-1-yl)phenyl)-3-(2-(trifluoromethyl)thiazol-4-yl)urea], in test [1], the Ki worked out at 11.4 nM. Further, the IC50 in test [2] amounted to 0.25 µM.

As for `CC(C)(C)c1nc(-c2c(F)cc(O)c3c2C(C)(C)CN3c2ccccc2NC(=O)Nc2ccc(OC(F)(F)F)cc2)co1` [Example 259, 1-(2-(4-(2-(tert-Butyl)oxazol-4-yl)-5-fluoro-7-hydroxy-3,3-dimethylindolin-1-yl)phenyl)-3-(4-(trifluoromethoxy)phenyl)urea], in test [1], the Ki is 46.3 nM. In addition, in test [2], the concentration for half-maximal inhibition (IC50) was found to be 0.58 µM.

On to `CCc1ccc(NC(=O)Nc2ccccc2N2CC(CC)(CC)c3c(F)ccc(O)c32)cc1` [Example 27, 1-(2-(3,3-Diethyl-4-fluoro-7-hydroxyindolin-1-yl)phenyl)-3-(4-ethylphenyl)urea], for which the Ki in test [1] was 3.1 nM. Further, the half-inhibitory concentration (IC50) in test [2] amounted to 1.02 µM.

As to `Cc1nn(C)c(C)c1-c1c(F)cc(O)c2c1C(C)(C)CN2c1ccccc1NC(=O)Nc1ccc(OC(F)(F)F)cc1` [Example 187, 1-(2-(5-Fluoro-7-hydroxy-3,3-dimethyl-4-(1,3,5-trimethyl-1H-pyrazol-4-yl)indolin-1-yl)phenyl)-3-(4-(trifluoromethoxy)phenyl)urea], the inhibitory constant (Ki) in test [1] was 19.2 nM. In addition, the IC50 in test [2] turned out to be 1.07 µM.

Take `CC1(C)CN(c2ccccc2NC(=O)Nc2ccc(OC(F)(F)F)cc2)c2c(O)ccc(-c3nc4cc(Cl)ccc4s3)c21` [Example 85, 1-(2-(4-(5-Chlorobenzo[d]thiazol-2-yl)-7-hydroxy-3,3-dimethylindolin-1-yl)phenyl)-3-(4-(trifluoromethoxy)phenyl)urea]: in test [1], the inhibition constant (Ki) was 23.5 nM. Also, the half-maximal inhibitory concentration (IC50) in test [2] was 0.38 µM.

On to `CC1(C)CN(c2ccccc2NC(=O)Nc2nc3ccc(F)cc3s2)c2c(O)cc(F)c(Br)c21` [Example 67, 1-(2-(4-Bromo-5-fluoro-7-hydroxy-3,3-dimethylindolin-1-yl)phenyl)-3-(6-fluorobenzo[d]thiazol-2-yl)urea], for which the Ki in test [1] is 13.8 nM. The IC50 in test [2] came out at 0.77 µM.

Regarding `CC1(C)CN(c2ccccc2NC(=O)Nc2ccc(OC(F)(F)F)cc2)c2c(O)c(F)cc(-c3ccccc3)c21` [Example 230, 1-(2-(6-Fluoro-7-hydroxy-3,3-dimethyl-4-phenylindolin-1-yl)phenyl)-3-(4-(trifluoromethoxy)phenyl)urea], the inhibition constant Ki in test [1] turned out to be 16.3 nM. The 50% inhibitory concentration (IC50) in test [2] is 0.3 µM.

Take `CC1(C)CN(c2ccccc2NC(=O)Nc2csc(Cl)n2)c2c(O)cc(F)c(-c3ccc(C(F)(F)F)cc3)c21` [Example 239, 1-(2-Chlorothiazol-4-yl)-3-(2-(5-fluoro-7-hydroxy-3,3-dimethyl-4-(4-(trifluoromethyl)phenyl)indolin-1-yl)phenyl)urea]: the Ki in test [1] worked out at 11.3 nM. Moreover, in test [2], the half-maximal inhibitory concentration (IC50) was 0.05 µM.

Turning to `CC1(C)CN(c2ccccc2NC(=O)Nc2nc3ccc(F)cc3s2)c2c(O)cc(F)c(-c3nc4cc(F)ccc4s3)c21` [Example 152, 1-(2-(5-Fluoro-4-(5-fluorobenzo[d]thiazol-2-yl)-7-hydroxy-3,3-dimethylindolin-1-yl)phenyl)-3-(6-fluorobenzo[d]thiazol-2-yl)urea], in test [1], the Ki was determined as 25.4 nM. Besides, in test [2], the half-maximal inhibitory concentration (IC50) came out at 0.3 µM.

Regarding `CC1(C)CN(c2ccccc2NC(=O)Nc2ccc(OC(F)(F)F)cc2)c2c(O)ccc(-c3nc4cc(Cl)ccc4o3)c21` [Example 84, 1-(2-(4-(5-Chlorobenzo[d]oxazol-2-yl)-7-hydroxy-3,3-dimethylindolin-1-yl)phenyl)-3-(4-(trifluoromethoxy)phenyl)urea], in test [1], the inhibition constant (Ki) turned out to be 16.7 nM. For the same compound, in test [2], the half-inhibitory concentration (IC50) was 0.58 µM.

Turning to `CC1(C)CN(c2ccccc2NC(=O)Nc2ccc(OC(F)(F)F)cc2)c2c(O)cc(F)c(-c3ccc(Cl)c(F)c3)c21` [Example 234, 1-(2-(4-(4-Chloro-3-fluorophenyl)-5-fluoro-7-hydroxy-3,3-dimethylindolin-1-yl)phenyl)-3-(4-(trifluoromethoxy)phenyl)urea], the Ki in test [1] came out at 40.8 nM. Further, the IC50 in test [2] came to 0.29 µM.

As to `CCC1(CC)CN(c2ccccc2NC(=O)Nc2ccc(OC(F)(F)F)cc2)c2c(O)ccc(Br)c21` [Example 39, 1-(2-(3,3-Diethyl-4-bromo-7-hydroxyindolin-1-yl)phenyl)-3-(4-(trifluoromethoxy)phenyl)urea], in test [1], the Ki was 18.8 nM. Moreover, in test [2], the IC50 came to 0.51 µM.

Consider `CC1(C)CN(c2ccccc2NC(=O)Nc2ccc(OC(F)(F)F)cc2)c2c(O)c(F)cc(-c3ccc(F)cc3)c21` [Example 232, 1-(2-(6-Fluoro-4-(4-fluorophenyl)-7-hydroxy-3,3-dimethylindolin-1-yl)phenyl)-3-(4-(trifluoromethoxy)phenyl)urea], for which the Ki in test [1] came to 14.7 nM. Besides, the half-inhibitory concentration (IC50) in test [2] was determined as 0.39 µM.

In the case of `C=C(C)c1ccc(-c2c(F)cc(O)c3c2C(C)(C)CN3c2ccccc2NC(=O)Nc2ccc(OC(F)(F)F)cc2)cc1` [Example 250, 1-(2-(5-Fluoro-7-hydroxy-3,3-dimethyl-4-(4-(prop-1-en-2-yl)phenyl)indolin-1-yl)phenyl)-3-(4-(trifluoromethoxy)phenyl)urea], the inhibition constant (Ki) in test [1] came to 29.5 nM. The IC50 in test [2] amounted to 0.22 µM.

Consider `CC1(C)CN(c2ccccc2NC(=O)Nc2ccc(OC(F)(F)F)cc2)c2c(O)cc(F)c(C3CC3)c21` [Example 252, 1-(2-(4-Cyclopropyl-5-fluoro-7-hydroxy-3,3-dimethylindolin-1-yl)phenyl)-3-(4-(trifluoromethoxy)phenyl)urea], for which the inhibition constant (Ki) in test [1] stood at 18.3 nM. Further, the IC50 in test [2] worked out at 0.42 µM.

On to `CC1(C)CN(c2ccccc2NC(=O)Nc2nc3ccc(Cl)cc3s2)c2c(O)ccc(-c3nc4ccc(F)cc4s3)c21` [Example 128, 1-(6-Chlorobenzo[d]thiazol-2-yl)-3-(2-(4-(6-fluorobenzo[d]thiazol-2-yl)-7-hydroxy-3,3-dimethylindolin-1-yl)phenyl)urea], for which, in test [1], the inhibitory constant (Ki) worked out at 108 nM. Also, the IC50 in test [2] is 0.24 µM.

Regarding `CCC1(CC)CN(c2ccccc2NC(=O)Nc2nc3c(s2)CN(CC(C)C)CC3)c2c(O)ccc(Cl)c21` [Example 54, 1-(2-(4-Chloro-3,3-diethyl-7-hydroxyindolin-1-yl)phenyl)-3-(5-isobutyl-4,5,6,7-tetrahydrothiazolo[5,4-c]pyridin-2-yl)urea], the Ki in test [1] is 13.3 nM. Also, the concentration for half-maximal inhibition (IC50) in test [2] turned out to be 0.15 µM.

In the case of `CC1(C)CN(c2ccccc2NC(=O)Nc2ccc(OC(F)(F)F)cc2)c2c(O)cc(F)c(-c3cc(C(F)(F)F)no3)c21` [Example 262, 1-(2-(5-Fluoro-7-hydroxy-3,3-dimethyl-4-(3-(trifluoromethyl)isoxazol-5-yl)indolin-1-yl)phenyl)-3-(4-(trifluoromethoxy)phenyl)urea], the inhibition constant Ki in test [1] was 12.9 nM. The concentration for half-maximal inhibition (IC50) in test [2] worked out at 0.92 µM.

Turning to `CC1(C)CN(c2ccccc2NC(=O)Nc2ccc(OC(F)(F)F)cc2)c2c(O)cc(F)c(-c3cccc(Cl)c3)c21` [Example 235, 1-(2-(4-(3-Chlorophenyl)-5-fluoro-7-hydroxy-3,3-dimethylindolin-1-yl)phenyl)-3-(4-(trifluoromethoxy)phenyl)urea], in test [1], the Ki was determined as 19.5 nM. For the same compound, in test [2], the IC50 turned out to be 0.23 µM.

With `CC1(C)CN(c2ccccc2NC(=O)Nc2ccc(OC(F)(F)F)cc2)c2c(O)cc(F)c(-c3nc4cc(F)ccc4s3)c21` [Example 151, 1-(2-(5-Fluoro-4-(5-fluorobenzo[d]thiazol-2-yl)-7-hydroxy-3,3-dimethylindolin-1-yl)phenyl)-3-(4-(trifluoromethoxy)phenyl)urea], the inhibition constant (Ki) in test [1] worked out at 24.1 nM. Moreover, the IC50 in test [2] is 0.48 µM.

On to `CC1(C)CN(c2ccccc2NC(=O)Nc2ccc(OC(F)(F)F)cc2)c2c(O)ccc(Br)c21` [Example 40, 1-(2-(4-Bromo-7-hydroxy-3,3-dimethylindolin-1-yl)phenyl)-3-(4-(trifluoromethoxy)phenyl)urea], for which, in test [1], the Ki is 13.8 nM. For the same compound, the IC50 in test [2] turned out to be 0.53 µM.

Take `CCOC(=O)c1ccc(O)c2c1C(C)(C)CN2c1ccccc1NC(=O)Nc1ccc(OC(F)(F)F)cc1` [Example 81, Ethyl 7-hydroxy-3,3-dimethyl-1-(2-(3-(4-(trifluoromethoxy)-phenyl)-ureido)phenyl)indoline-4-carboxylate]: the inhibition constant (Ki) in test [1] stood at 8.6 nM. In test [2], the IC50 stood at 0.91 µM.

On to `CC1(C)CN(c2ccccc2NC(=O)Nc2nc3ccc(F)cc3s2)c2c(O)ccc(Br)c21` [Example 1, 1-(2-(4-Bromo-7-hydroxy-3,3-dimethylindolin-1-yl)phenyl)-3-(6-fluorobenzo[d]thiazol-2-yl)urea], for which, in test [1], the Ki is 10.8 nM. For the same compound, the IC50 in test [2] was 0.47 µM.

Take `COc1ccc2nc(NC(=O)Nc3ccccc3N3CC(C)(C)c4c(-c5nc6ccc(Cl)cc6o5)ccc(O)c43)sc2n1` [Example 110, 1-(2-(4-(6-Chlorobenzo[d]oxazol-2-yl)-7-hydroxy-3,3-dimethylindolin-1-yl)phenyl)-3-(5-methoxythiazolo[5,4-b]pyridin-2-yl)urea]: the Ki in test [1] is 15.4 nM. Moreover, the IC50 in test [2] was 0.31 µM.
